We go through one substance from US20250263441A1 (Metanovas Biotech Inc., priority 2024, published 2025).

What all share (format): cell-based
For data set [1], the system named is Mouse macrophage RAW264.7 cells. In words: RT-qPCR of inflammation markers in LPS-stimulated RAW264.7 cells. The following applies: LPS 10 ng/ml, 24 hours; repeated experiments. How it is done: (§1) (1) Mouse macrophage RAW264.7 cells were cultured in DMEM supplemented with 10% fetal bovine serum (FBS) and 1% penicillin and streptomycin (P/S) at 37° C. in a 5% CO2 incubator.
(§2) (2) 5×10^4 mouse-derived RAW264.7 macrophages were placed in 12-well cell culture plates and cultured for 24 hours. Then, 20 μL of PBS (negative control), Dexamethasone (positive control), and the test peptide were added to the wells for incubation for 2 hours. Afterward, 10 ng/ml of lipopolysaccharide (LPS) was mixed with RAW264.7 cells and incubated for 24 hours.
(4) The cells were collected, and total RNA was isolated and extracted, reverse transcribed, and subjected to RT-qPCR to detect inflammation markers, including TNF-α, IL-1β, IL-6/10, CCL2, IFN-γ, iNOS, and GAPDH.
3. After treating RAW264.7 cells with AMP-33, RT-qPCR was used to detect the levels of IL-6 and IL-1ß mRNA.

In the next data set the test system is Staphylococcus aureus. The data set can be described thus: Minimum inhibitory concentration on Staphylococcus aureus (liquid culture). The following applies: 37° C., 24 to 48 hours. How it is done: (§3) Primary screening of liquid culture: the peptides in Examples 1 to 2 were dissolved in pure water to a concentration of 100 μg/mL. Using a micropipette, 10 μL of the peptides were added to a new 96-well plate in order from left to right, starting from the second compartment. Positive and negative controls were established for use. The 96-well plates were arranged vertically, and the peptide concentrations in the control groups were the same as those of the antimicrobial peptides. The control groups included: pure water and bacteria, antimicrobial peptide FK13 and bacteria, antimicrobial peptide HPA3NT3 and bacteria, and ciprofloxacin and bacteria. An aseptic medium was used.
(§4) If a 96-deep-well plate was used to culture bacteria, an additional 100 μL of sterile medium was added to all wells.
Staphylococcus aureus was inoculated in LB medium with a normal oxygen concentration (21%) for 48 hours. Staphylococcus aureus clones were picked and incubated in LB medium at 37° C. with a normal oxygen concentration (21%) for an additional 48 hours. The bacterial concentration was measured and diluted to 107 CFU/mL with culture medium for use.
(§5) The prepared fresh bacterial suspension was diluted to 105 CFU/mL and added to the 96-well plate with 90 μL of the bacterial suspension per well. The plate was incubated at 37° C. with a normal oxygen concentration for 24 to 48 hours (Propionibacterium acnes was cultured anaerobically at 37° C. for 24 to 48 hours in an anaerobic bag). The absorbance at 630 nm was measured using a microplate reader, and the degree of turbidity was observed by the naked eye.
(§6) (iv) Repetition of Operations: The Operations in (iii) were Repeated Twice, and the Decision to Perform a Third Repetition was Based on the Reproducibility of the Experiment.

In the next data set the test system is Candida albicans. The data set can be described thus: Minimum inhibitory concentration on Candida albicans (liquid culture). The following applies: 37° C., 24 to 48 hours. The protocol: Primary screening of liquid culture: the peptides in Examples 1 to 2 were dissolved in pure water to a concentration of 100 μg/mL. Using a micropipette, 10 μL of the peptides were added to a new 96-well plate in order from left to right, starting from the second compartment. Positive and negative controls were established for use. The 96-well plates were arranged vertically, and the peptide concentrations of the control groups were the same as those of the antimicrobial peptide. The control groups consisted of: pure water and bacteria, antimicrobial peptide FK13 and bacteria, and antimicrobial peptide HPA3NT3 and bacteria. An aseptic medium was used. The amino acid sequence of FK13 is […] (SEQ ID NO: 5), and the amino acid sequence of HPA3NT3 is […] (SEQ ID NO: 6).
as §4
Candida albicans was inoculated in LB medium with normal oxygen concentration (21%) for 48 hours. […] clones were picked and incubated in LB medium at 37° C. with normal oxygen concentration (21%) for 48 hours. The bacterial concentration was measured and diluted to 107 CFU/mL with culture medium for use.
The prepared fresh bacterial suspension was diluted to 105 CFU/mL and added to the 96-well plate with 90 μL of the bacterial suspension per well, and incubated at 37° C. with normal oxygen concentration for 24 to 48 hours. The absorbance at 630 nm was measured with a microplate reader, and the degree of turbidity was observed by the naked eye.
as §6

In a further data set the test system is Propionibacterium acnes. The data set can be described thus: Minimum inhibitory concentration on Propionibacterium acnes (liquid culture). The following applies: anaerobic, 37° C., 24 to 48 hours. How it is done:
as §3, §4
Propionibacterium acnes was inoculated on an anaerobic blood agar plate, placed in an anaerobic bag, and incubated anaerobically at 37° C. for 48 hours. Propionibacterium acnes clones were then picked and incubated anaerobically in liquid anaerobic broth medium at 37° C. for an additional 48 hours. The bacterial concentration was measured and diluted to 107 CFU/mL with culture medium.
as §5, §6

The subject of data set [2] is Mouse macrophage RAW264.7 cells. In words: NO concentration after treatment of LPS-stimulated RAW264.7 cells. The following applies: LPS 10 ng/ml, 24 hours, replicate experiments. How it is done: as §1, §2
(3) The supernatant was collected, and NO and IL-6/IL-1ß expression levels were measured using a commercial kit.

The subject of data set [3] is HaCat (human immortalized epidermal cells) cells. The data set can be described thus: Cytotoxic assay (CCK-8) in HaCat cells. The following applies: 60 hours. How it is done: Preparation of Cell Suspension: HaCat (human immortalized epidermal cells) cells were counted and inoculated into 96-well plates. 100 μL of cell suspension was added to each well, corresponding to a density of 5×10^4 cells per well, with three replicates for each sample. The cells were cultured in a 37° C. incubator for 4 hours until they were attached to the plate. Peptides from the examples, as well as FK13 and HPA3NT3, were then added at concentrations of 80 μg/mL, 32 μg/mL, and 8 μg/mL. The cells were incubated at 37° C. for 60 hours. Afterward, 10 μL of CCK-8 solution was added, and the cells were cultured for an additional 2 hours. The absorbance of the peptides at 450 nm was measured using a dual-wavelength detector, with a detection wavelength of 450-490 nm and a reference wavelength of 600-650 nm.

“And” between values parts separate entries of the source, which are not always exact repeats. Equal values may be shown once.

As to “Example 2: LSKWLKKLGKLLAG (designated as AMP33)”, the “CCL-2 mRNA level” value in data set [1] is 0.51 and 0.52 and 0.58. Further, the “COX-2 mRNA level” value in data set [1] is 0.71 and 0.58 and 1.16. The “IL-1β mRNA level” value in data set [1] is 0.40 and 0.45 and 0.77. Besides, the “IL-6 mRNA level” value in data set [1] was 0.96 and 0.49 and 0.95. In data set [1], the “IL-10 mRNA level” value was 1.80 and 2.50 and 1.32. Also, the “Minimum inhibitory concentration on Staphylococcus aureus” value with Staphylococcus aureus came out at 12.5 µg/mL. In addition, in the data set with Candida albicans, the “Minimum inhibitory concentration on Candida albicans” value was 25 µg/mL. In the data set on Propionibacterium acnes, the “Minimum inhibitory concentration on Propionibacterium acnes” value was found to be 4 µg/mL. Further, the NO concentration in data set [2] (AMP-33 2 μg/mL) is 12.70 µM and 13.54 µM and 13.37 µM; in data set [2] (AMP-33 4 μg/mL), 12.35 µM and 12.14 µM and 11.10 µM; in data set [2] (AMP-33 8 μg/mL), 10.26 µM and 10.75 µM and 11.10 µM; in data set [2] (AMP-33 25 μg/mL) it was 2.82 µM and 2.89 µM and 3.83 µM; in data set [2] (AMP-33 50 μg/mL) it was 1.27 µM and 1.33 µM and 1.60 µM; in data set [2] (AMP-33 100 μg/mL), 1.60 µM and 1.13 µM and 1.54 µM. In data set [3], this substance returned a Maximum cytotoxicity-free concentration of 80 µg/mL.
